What was measured:
Leukemia L1210 = assay: Activity against Leukemia L1210, intraperitoneal, increase in life span of mice; format: in vivo, female mice (BDF1 family); conditions: for ED (maximum ILS) / ED30: Mus musculus, L1210, ip, ip once a day for 5 successive days; for ED (maximum ILS): daily dosage giving maximum increase of life span, read-out: O.D. (optimum dosage); for ED30: daily dosage increasing average survival days by 30%, read-out: ILS30; for Survivors after 60 days / Max. ILS % / Therapeutic ratio TR: ip; for Survivors after 60 days: 6-membered group; for Max. ILS %: 60-day observation, versus control; for Therapeutic ratio TR: O.D./ILS30
How it was run: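 Female BDF1 mice (20 to 23 g; 6 per group) were implanted intraperitoneally with 1×10^5 L1210 cells, then dosed ip or orally once daily for 5 days starting 24 h later. Survival was followed over 60 days, and ILS% was derived from mean survival days versus untreated controls.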

[1] = Acute toxicity (LD50, Behrens-Karber method); format: in vivo, ICR mice; conditions: mouse, in vivo, ip, mortality during 30 days
Experimental: Test compounds, dissolved or suspended in 0.5% aqueous CMC, were each intraperitoneally administered to ICR mice in a dose of 0.1 ml per 10 g body weight. LD50 (mg/kg) value of each test compound was calculated from the mortality of mice during 30 days by the Behrens-Karber method.

For `CC(C)CN(C[C@H]1O[C@@H](OC2CCCCC2)[C@H](O)[C@@H]1O)C(=O)N(CCCl)N=O` [Compound 169, 3-isobutyl-3-(cyclohexyl β-D-ribofuranose-5-yl)-1-(2-chloroethyl)-1-nitrosourea], the ED (maximum ILS) (Leukemia L1210) was 180 mg/kg, the ED30 (Leukemia L1210) was 3.9 mg/kg and the “Survivors after 60 days” value (Leukemia L1210) was 4/6. For the same compound, the “Max. ILS %” value (Leukemia L1210) was > 420%, the “Therapeutic ratio TR” value (Leukemia L1210) was 46.2 and the LD50 at 720 h [1] was 550 mg/kg.
For `O=NN(CCCl)C(=O)N(CCCCO)C[C@H]1O[C@H](OC2CCCCC2)[C@H](O)[C@@H](O)[C@@H]1O` [Compound 43], the ED (maximum ILS) (Leukemia L1210) was 160 mg/kg, the ED30 (Leukemia L1210) was 4.68 mg/kg and the “Survivors after 60 days” value (Leukemia L1210) was 4/6. The “Max. ILS %” value (Leukemia L1210) was > 435%, the “Therapeutic ratio TR” value (Leukemia L1210) was 34.2 and the LD50 at 720 h [1] was 520 mg/kg.
In the case of `COCCCN(C(=O)N(CCCl)N=O)[C@@H]1[C@@H](O)[C@@H](OCC(C)C)O[C@@H]1CO` [Compound 165, 3-(3-methoxy-n-propyl)-3-(isobutyl α-D-xylofuranose-3-yl)-1-(2-chloroethyl)-1-nitrosourea], the ED (maximum ILS) (Leukemia L1210) is reported as 160 mg/kg, the ED30 (Leukemia L1210) is reported as 5.57 mg/kg and the “Survivors after 60 days” value (Leukemia L1210) is reported as 3/6. For the same compound, the “Max. ILS %” value (Leukemia L1210) was > 340%, the “Therapeutic ratio TR” value (Leukemia L1210) was 28.7 and the LD50 at 720 h [1] was 480 mg/kg.
With `COCC(C)O[C@H]1O[C@H](CN(CC(C)C)C(=O)N(CCCl)N=O)[C@@H](O)[C@H](O)[C@H]1O` (stereo partly drawn) [Compound 33, 3-isobutyl-3-(1-methyl-2-methoxyethyl α-D-glucopyranose-6-yl)-1-(2-chloroethyl)-1-nitrosourea] the ED (maximum ILS) (Leukemia L1210) was 170 mg/kg, the ED30 (Leukemia L1210) was 2.62 mg/kg and the “Survivors after 60 days” value (Leukemia L1210) was 6/6. For the same compound, the “Max. ILS %” value (Leukemia L1210) was > 700%, the “Therapeutic ratio TR” value (Leukemia L1210) was 64.9 and the LD50 at 720 h [1] was 560 mg/kg.
With `C=C(C)CN(C(=O)N(CCCl)N=O)C1C(O)C(CO)OC(OC(C)CC)C1O` [Compound 85, 3-(2-methyl-2-propenyl)-3-(sec-butyl α-D-glucopyranose-3-yl)-1-(2-chloroethyl)-1-nitrosourea] the ED (maximum ILS) (Leukemia L1210) was 220 mg/kg, the ED30 (Leukemia L1210) was 7.25 mg/kg and the “Survivors after 60 days” value (Leukemia L1210) was 3/6. For the same compound, the “Max. ILS %” value (Leukemia L1210) was > 360%, the “Therapeutic ratio TR” value (Leukemia L1210) was 30.3 and the LD50 at 720 h [1] was 685 mg/kg.
In the case of `C=C(C)CN(C(=O)N(CCCl)N=O)[C@H]1[C@@H](OCCCC)O[C@H](CO)[C@@H](O)[C@@H]1O` [Compound 56, 3-(2-methyl-2-propenyl)-3-(n-butyl α-D-glucopyranose-2-yl)-1-(2-chloroethyl)-1-nitrosourea], the ED (maximum ILS) (Leukemia L1210) is reported as 170 mg/kg, the ED30 (Leukemia L1210) is reported as 5.38 mg/kg and the “Survivors after 60 days” value (Leukemia L1210) is reported as 3/6. The “Max. ILS %” value (Leukemia L1210) was > 360%, the “Therapeutic ratio TR” value (Leukemia L1210) was 31.6 and the LD50 at 720 h [1] was 460 mg/kg.
With `COCCCOC1OC(CO)C(O)C(O)C1N(CC(C)C)C(=O)N(CCCl)N=O` [Compound 68, 3-isobutyl-3-(3-methoxy-n-propyl α-D-glucopyranose-2-yl)-1-(2-chloroethyl)-1-nitrosourea] the ED (maximum ILS) (Leukemia L1210) was 170 mg/kg, the ED30 (Leukemia L1210) was 4.43 mg/kg and the “Survivors after 60 days” value (Leukemia L1210) was 4/6. For the same compound, the “Max. ILS %” value (Leukemia L1210) was > 425%, the “Therapeutic ratio TR” value (Leukemia L1210) was 38.4 and the LD50 at 720 h [1] was 500 mg/kg.
For `CCCCN(C[C@H]1O[C@H](OC)[C@H](O)[C@@H](O)[C@@H]1O)C(=O)N(CCCl)N=O` [Compound 6MCαGB, 3-n-butyl-3-(methyl α-D-glucopyranose-6-yl)-1-(2-chloroethyl)-1-nitrosourea, reference compound], the ED (maximum ILS) (Leukemia L1210) was 30 mg/kg, the ED30 (Leukemia L1210) was 1.34 mg/kg and the “Survivors after 60 days” value (Leukemia L1210) was 4/6. For the same compound, the “Max. ILS %” value (Leukemia L1210) was > 440%, the “Therapeutic ratio TR” value (Leukemia L1210) was 22.4 and the LD50 at 720 h [1] was 92 mg/kg.
With `COCC(C)N(C[C@H]1O[C@H](OCCc2ccccc2)[C@@H](O)[C@H](O)[C@@H]1O)C(=O)N(CCCl)N=O` (stereo partly drawn) [Compound 141, 3-(1-methyl-2-methoxyethyl)-3-(phenyl-β-ethyl α-D-altropyranose-6-yl)-1-(2-chloroethyl)-1-nitrosourea] the ED (maximum ILS) (Leukemia L1210) was 160 mg/kg, the ED30 (Leukemia L1210) was 4.4 mg/kg and the “Survivors after 60 days” value (Leukemia L1210) was 3/6. For the same compound, the “Max. ILS %” value (Leukemia L1210) was > 360%, the “Therapeutic ratio TR” value (Leukemia L1210) was 36.4 and the LD50 at 720 h [1] was 480 mg/kg.

Reference: patent publication US4593090A, “Novel nitrosourea compounds, method for preparing same, and pharmaceutical composition containing same” (Gogo Kimura, priority 1981, dated 1986)
